Assay results from patent publication US7825096B2, “O6-alkylguanine-DNA alkyltransferase inactivators and beta-glucuronidase cleavable prodrugs” (The United States of America as represented by the …, priority 2004, dated 2010).
Converted amounts (≈) assume the structure as drawn. Structures can show the parent of a compound that is named as a salt.

Columns and labels:
[1] = Stability (first-order hydrolysis) of prodrugs in aqueous buffers at 37° C., HPLC; assay type: physicochemical; conditions: for Observed first order rate constant for hydrolysis, kTris: 50 mM Tris-HCl (pH 7.5), 5 mM dithiothreitol, 0.1 mM EDTA; for Observed first order rate constant for hydrolysis, kTris / Observed first order rate constant for hydrolysis, kMOPS / Observed first order rate constant for hydrolysis, kDulbecco: 37° C.; for Observed first order rate constant for hydrolysis, kMOPS: 50 mM morpholinopropane sulfonic acid, pH 7.0, 0.01% NaCl; for Observed first order rate constant for hydrolysis, kPBS: Phosphate buffered saline, pH 7.2, 37° C.; for Observed first order rate constant for hydrolysis, kDulbecco: modified Dulbecco's medium
Method: Prodrug purity of the prodrugs was determined by HPLC on a Hewlett-Packard LC 1090 Series II system equipped with a Phenomenex 250×4 mm column (5 μm particle size) eluted isocratically at 1 mL/min with acetonitrile/0.1 M triethylammonium acetate (TEAA), pH 7.0, (3:7). Aliquots (100 μL) from prodrug solutions were withdrawn and diluted with 100 μL of a solution of p-nitrobenzyl alcohol (an internal standard) in acetonitrile/0.1 M TEAA (6:4). UV detection was at 254 and 280 nm. Retention times for 1, 2, O^6-benzylguanine, O^6-benzyl-2′-deoxyguanosine and p-nitrobenzyl alcohol were 5.20, 4.97, 7.13, 7.18 and 8.64 min, respectively. All determinations were carried out in duplicate or triplicate.
The stability of the prodrugs was determined in phosphate buffered saline (pH 7.2) (Life Techologie, Inc), a Tris buffer containing 50 mM Tris-HCl (pH 7.5) (Life Technologies, Inc), 5 mM dithiothreitol and 0.1 mM EDTA, a MOPS buffer (pH 7.0) containing 50 mM morpholinopropane sulfonic acid, […] Dulbecco's medium prepared by combining 400 mL of Dulbecco's medium with 7 mL of 7.5% NanCO3, 4 mL of 15 mM glutamine, 2 mL gentamicin and 40 mL of fetal calf serum. Solutions were incubated at 37° C. and prodrug concentrations were analyzed by HPLC at various times as indicated above.
Rate constants for the first-order disappearance of prodrugs were estimated from semi-log plots of the concentration of prodrug as a function of time. The spontaneous rate of liberation, for example, in aqueous solutions, of the AGT inactivator is much lower than the rate for β-glucuronidase catalyzed liberation, for example, about 10 times less, and preferably 100 times less. The spontaneous rate of liberation of the AGT inactivator from the prodrug is low, e.g., about 0.2 to about 0.5% by weight per hour.

E. coli β-glucuronidase = target: T1, E. coli β-glucuronidase (Escherichia coli, UniProt P05804); assay: Enzymatic hydrolysis of prodrugs by E. coli β-glucuronidase in MOPS buffer; assay type: biochemical; conditions: 0.2 unit/mL E. coli enzyme, FIG. 1B
T1 construct: purchased Sigma type IX-A
Method: (§1) The enzymatic hydrolysis of the prodrugs was investigated with both E. coli and bovine liver β-glucuronidase in MOPS buffer at pH 7.0. Prodrugs and p-nitrobenzyl alcohol (HPLC internal standard) were dissolved in the MOPS buffer (pH 7.0) at 37° C. Enzymatic cleavage was initiated by adding 0.2 Fishman units of E. coli β-glucuronidase (Sigma type IX-A) (42.8 units/mg of protein) or 10 Fishman units of bovine liver β-glucuronidase (Sigma type B-10) (10.2 units/mg of protein) to the incubation buffer. Aliquots (100 μL) of the reaction mixture were withdrawn at various times and were mixed with 100 μL of acetonitrile/0.1 M TEAA (6:4) to quench the enzymatic reaction. Prodrug and product concentrations were determined by HPLC. For determination of enzyme kinetic parameters, prodrug solutions at concentrations between 5 and 300 μM were incubated with a fixed amount of enzyme. Aliquots were withdrawn at time intervals varying from 1 to 20 min and the reactions were quenched as described above. Initial reaction velocities were determined at each substrate concentration. Non-linear regression methods were used to determine KM and Vmax values. Data were processed with Prism 3.0 software.

[2] = target: T2, bovine liver β-glucuronidase (Bos taurus, UniProt A3KMY8); assay: Enzymatic hydrolysis of prodrugs by bovine liver β-glucuronidase in MOPS buffer; assay type: biochemical; conditions: 10 units/mL bovine liver enzyme, FIG. 1A
T2 construct: bovine liver β-glucuronidase (Sigma type B-10) (10.2 units/mg of protein); purchased Sigma type B-10; host or cells: bovine liver
T2 sequence (A3KMY8 1-652): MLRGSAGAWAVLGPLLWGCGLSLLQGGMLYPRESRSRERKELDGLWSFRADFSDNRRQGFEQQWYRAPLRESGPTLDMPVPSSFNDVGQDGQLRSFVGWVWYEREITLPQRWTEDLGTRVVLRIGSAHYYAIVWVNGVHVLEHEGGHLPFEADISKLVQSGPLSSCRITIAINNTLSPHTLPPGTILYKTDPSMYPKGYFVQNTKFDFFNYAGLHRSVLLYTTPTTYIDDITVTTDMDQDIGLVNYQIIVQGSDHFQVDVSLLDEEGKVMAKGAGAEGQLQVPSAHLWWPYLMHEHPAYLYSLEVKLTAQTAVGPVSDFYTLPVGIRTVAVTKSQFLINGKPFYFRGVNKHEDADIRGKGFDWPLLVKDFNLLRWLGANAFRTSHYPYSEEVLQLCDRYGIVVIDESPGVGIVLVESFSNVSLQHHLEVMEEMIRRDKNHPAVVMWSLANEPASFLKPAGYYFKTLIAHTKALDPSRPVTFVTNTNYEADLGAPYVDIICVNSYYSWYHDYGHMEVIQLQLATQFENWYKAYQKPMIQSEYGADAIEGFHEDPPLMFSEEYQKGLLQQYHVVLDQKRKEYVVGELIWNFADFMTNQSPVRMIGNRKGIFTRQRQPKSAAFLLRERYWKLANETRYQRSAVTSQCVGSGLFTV
Method: as §1

[3] = target: T3, human O^6-alkylguanine-DNA alkyltransferase (Homo sapiens, UniProt P16455); assay: Inactivation of purified recombinant human alkyltransferase (AGT) in vitro, [3H]-methylated DNA substrate; assay type: biochemical; conditions: for IC50: absence of β-glucuronidase, 30 min at 37° C., FIG. 2, read-out: inactivation of human AGT: concentration up to which inactive; for alkyltransferase inactivation in the presence of bovine liver β-glucuronidase: incubation with bovine liver β-glucuronidase (20 or 200 units/mL) for 30 min, FIG. 2A/2B
T3 sequence (P16455 1-207): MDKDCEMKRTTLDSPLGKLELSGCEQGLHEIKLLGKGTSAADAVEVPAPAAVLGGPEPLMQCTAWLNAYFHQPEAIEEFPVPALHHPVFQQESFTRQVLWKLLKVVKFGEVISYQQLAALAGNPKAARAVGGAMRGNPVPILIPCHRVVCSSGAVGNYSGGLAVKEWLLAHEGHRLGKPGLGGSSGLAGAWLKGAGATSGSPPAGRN
Method: Purified recombinant human alkyltransferase was incubated with different concentrations of prodrugs in 0.5 mL of reaction buffer (50 mM Tris-HCl, pH 7.6, 0.1 mM EDTA, 5.0 mM dithiothreitol) containing 50 μg of hemocyanin for 30 min at 37° C. For experiments involving β-glucuronidase, the bovine liver protein, prodrugs and alkyltransferase were incubated together in the above hemocyanin-containing buffer for 30 min at 37° C. The remaining alkyltransferase activity was determined after incubation with a [^3H]-methylated calf thymus DNA substrate for 30 min at 37° C. by measuring the [^3H]-methylated methylated protein formed, which was collected on nitrocellulose filters. The results were expressed as the percentage of the alkyltransferase activity remaining.

HT29 cells = assay: HT29 cell killing by BCNU after drug pretreatment, colony-forming assay; assay type: cell-based; conditions: for HT29 cell killing by BCNU after prodrug without β-glucuronidase: 5 hr prodrug, no β-glucuronidase, then two-hour 40 μM BCNU; for HT29 cell killing by BCNU after prodrug without β-glucuronidase / HT29 cell killing by BCNU after prodrug with β-glucuronidase: FIG. 3; for HT29 cell killing by BCNU after prodrug with β-glucuronidase: bovine liver β-glucuronidase 20 units/mL of medium, 7 or 14 hr (1), 14 hr (2), then 2 hr 40 μM BCNU
Method: HT29 cells were grown in RPMI 1640 medium in the presence of 10% fetal bovine serum. The effect of alkyltransferase inactivators on the sensitivity of cells to BCNU was determined using a colony-forming assay. Cells were plated at a density of 10^6 in 25 cm^2 flasks and 24 h later were incubated with different concentrations of prodrugs for the time indicated before exposure to 40 μM BCNU for 2 hr. For experiments involving β-glucuronidase, the bovine liver protein was added to the cell cultures at 20 units/mL of medium and incubated along with the prodrug. BCNU was dissolved in absolute ethanol at a concentration of 8 mM. It was diluted with the same volume of ice-cold phosphate-buffered saline, and was immediately administered to cells. After two hr, the medium was replaced with fresh medium and the cells were left to grow for an additional 16-18 h. The cells were then replated at densities of 250 cells per 25 cm^2 flask and grown for 8 days until discrete colonies had formed. The colonies were washed with 0.9% saline solution, stained with 0.5% crystal violet in ethanol, and counted. The plating efficiency of cells not treated with drugs was about 50%.

Solubility in water = assay type: physicochemical; conditions: for solubility: water
[4] = Stability under acidic conditions; assay type: physicochemical

T1 sequence (P05804 whole entry): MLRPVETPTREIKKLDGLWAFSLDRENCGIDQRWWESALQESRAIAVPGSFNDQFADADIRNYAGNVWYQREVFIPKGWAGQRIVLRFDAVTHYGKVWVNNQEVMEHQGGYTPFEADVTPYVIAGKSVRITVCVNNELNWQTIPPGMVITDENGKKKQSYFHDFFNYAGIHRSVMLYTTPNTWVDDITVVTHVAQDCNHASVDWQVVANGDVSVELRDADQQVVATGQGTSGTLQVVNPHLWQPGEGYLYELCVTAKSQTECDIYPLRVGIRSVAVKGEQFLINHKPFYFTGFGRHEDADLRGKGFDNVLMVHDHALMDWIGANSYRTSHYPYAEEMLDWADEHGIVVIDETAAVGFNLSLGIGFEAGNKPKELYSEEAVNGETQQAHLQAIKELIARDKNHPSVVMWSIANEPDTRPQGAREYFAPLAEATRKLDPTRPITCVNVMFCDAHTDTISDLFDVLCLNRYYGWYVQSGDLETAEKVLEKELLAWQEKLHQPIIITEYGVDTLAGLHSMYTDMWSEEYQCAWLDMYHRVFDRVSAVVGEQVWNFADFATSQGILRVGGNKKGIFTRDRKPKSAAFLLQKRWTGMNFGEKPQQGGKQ

Structure (SMILES)	Observed first order rate constant for hydrolysis, kTris [1] [min⁻¹]	Observed first order rate constant for hydrolysis, kMOPS [1] [min⁻¹]	Observed first order rate constant for hydrolysis, kPBS [1] [min⁻¹]	Observed first order rate constant for hydrolysis, kDulbecco [1] [s⁻¹]	hydrolysis by the E. coli enzyme (prodrug disappearance) (E. coli β-glucuronidase)	hydrolysis by the bovine liver enzyme (prodrug disappearance) [2]	IC50 [3] [µM]	alkyltransferase inactivation in the presence of bovine liver β-glucuronidase [3]	HT29 cell killing by BCNU after prodrug without β-glucuronidase (HT29 cells)	HT29 cell killing by BCNU after prodrug with β-glucuronidase (HT29 cells)	ED90 for HT29 cell killing by 40 μM BCNU following a 2-hr incubation with drug (HT29 cells)	fold more water soluble than O^6-benzylguanine (Solubility in water; relative to O^6-benzylguanine)	solubility (Solubility in water) [mg/mL]	stability under acidic conditions compared with O^6-benzylguanine [4]	average half-time for decomposition ([1]; aqueous buffers of Table 1) [days]
O=C(Nc1nc(OCc2ccccc2)c2ncn([C@H]3C[C@H](O)[C@@H](CO)O3)c2n1)OCc1ccc(O[C@@H]2O[C@H](C(=O)O)[C@@H](O)[C@H](O)[C@H]2O)c([N+](=O)[O-])c1 [Prodrug 2, O^6-Benzyl-N^2-[[[[4″-[(β-D-glucopyranuronosyl)oxy]-3″-nitrophenyl]methyl]oxy]carbonyl]-2′-deoxyguanosine, monosodium salt]	1.55e-07	1.88e-07	6.46e-07	7.8e-09	rapid disappearance	rapid disappearance	> 50	efficient alkyltransferase inactivation	quite resistant to killing	much greater cell killing by BCNU	–	–	–	–	–
NCc1cccc(COc2nc(N)nc3nc[nH]c23)c1 [Compound 25, O^6-(3-Aminomethylbenzyl)guanine]	–	–	–	–	–	–	–	–	–	–	1.75 µM	at least 700 ×	> 100	far more stable	–
NCc1ccc(COc2nc(N)nc3[nH]cnc23)cc1 [Compound 24, O^6-(4-Aminomethylbenzyl)guanine]	–	–	–	–	–	–	–	–	–	–	>>5 μM	–	> 100	–	–
Nc1nc(OCc2ccccc2)c2nc[nH]c2n1 [O^6-benzylguanine, reference compound]	–	–	–	–	–	–	–	–	–	–	0.75 µM	–	0.1 (≈ 0.415 mM)	–	–
O=C(Nc1nc(OCc2ccccc2)c2nc[nH]c2n1)OCc1ccc(O[C@@H]2O[C@H](C(=O)O)[C@@H](O)[C@H](O)[C@H]2O)c([N+](=O)[O-])c1 [Prodrug 1, O^6-Benzyl-N-[[[[4′-[(-β-D-glucopyranuronosyl)oxy]-3′-nitrophenyl]methyl]oxy]carbonyl]guanine, monosodium salt]	4.06e-06	3.77e-06	3.86e-06	7.15e-08	rapid disappearance	rapid disappearance	> 50	efficient alkyltransferase inactivation	quite resistant to killing	greatly sensitized to killing by BCNU	–	–	–	–	~100
